The record followed here is patent US20110130397A1, “PYRROLINONE COMPOUNDS AS INHIBITORS OF BACTERIAL PEPTIDYL TRNA HYDROLASE AND USES THEREOF” (priority 2006, published 2011).

Where only a bound is given, the exact number is not on record here.

Data set [1] can be described thus: Cytotoxicity (CellTiter 96 Aqueous Non-Radioactive Cell Proliferation Assay). Type of data set: cell-based. To be noted: human, Huh7 cells. How it is done: Novel antibacterial peptidyl tRNA hydrolase inhibitors were identified using the MIC assay (inhibition ranged from 32-100%). The inhibitors were also bacteria specific, as evidenced by the low cytotoxicity observed for the human Huh7 cells (FIG. 4). Cytotoxicity was determined according to manufacturer's directions (CellTiter 96 Aqueous Non-Radioactive Cell Proliferation Assay, Promega).
Further data for representative compounds is set forth in Table 1 (MIC and cytotoxicity). Compounds were tested against S. aureus (ATCC 29213) and E. coli (BAS849—permeable) in the MIC assays. Certain compounds were also tested against other bacteria, including S. epidermis (ATCC 12228), E. faecium (ATCC 49624), and E. faecalis (ATCC 29212). Cytotoxicity was determined using Hu7 cells and Hep G2 cells. The MIC and cytotoxicity assays were performed as described above.

The term CC50 denotes the concentration at which the toxic effect on the cells reaches its halfway point. `COc1cc(C2C(C(=O)c3cc4ccccc4o3)=C(O)C(=O)N2c2nc(C)c(C(C)=O)s2)ccc1OCc1ccccc1` (centres unmarked) [Compound 11]: the 50% cytotoxic concentration (CC50) in data set [1] was over 84 µM.

For the compound `CCc1ccc2nc(N3C(=O)C(O)=C(C(=O)c4ccccc4)C3c3ccco3)sc2c1` (centres unmarked) [Compound 119], the CC50 in data set [1] came out at 10.8 µM.

The melting point is the temperature of the solid-liquid transition. On to `CC(=O)c1sc(N2C(=O)C(O)=C(C(=O)c3cc4ccccc4o3)C2c2ccc(Oc3ccccc3)cc2)nc1C` (centres unmarked) [Compound 56], for which the melting point lay in the range of 251 to 253 °C. Also, the CC50 in data set [1] was over 984 µM.

For `CCOc1cc(C2C(C(=O)c3cc4ccccc4o3)=C(O)C(=O)N2c2nc3c(C)cc(C)cc3s2)ccc1O` (centres unmarked) [Compound 4], the 50% cytotoxic concentration (CC50) in data set [1] amounted to 53.4 µM.

Regarding `Cc1nnc(N2C(=O)C(O)=C(C(=O)c3ccc(OC(C)C)cc3)C2c2ccco2)s1` (centres unmarked) [Compound 33], in data set [1], the CC50 was over 110 µM.

`CC(=O)c1sc(N2C(=O)C(O)=C(C(=O)c3cc4ccccc4o3)C2c2ccccc2)nc1C` (centres unmarked) [Compound 54]: the melting point was 205 to 208 °C. Also, the CC50 in data set [1] stood at 78.5 µM.

As to `COc1ccc(C(=O)C2=C(O)C(=O)N(c3nccs3)C2c2ccc(Cl)cc2)cc1C` (centres unmarked) [Compound 44], the CC50 in data set [1] is 51.5 µM.

Regarding `Cc1ccc(C2C(C(=O)c3ccc(Cl)cc3)=C(O)C(=O)N2c2nccs2)cc1` (centres unmarked) [Compound 59], the cytotoxic concentration (CC50) in data set [1] is 60.5 µM.

The compound `CCCCOc1ccc(C2C(C(=O)c3cc4ccccc4o3)=C(O)C(=O)N2c2nc(C)c(C(C)=O)s2)cc1` (centres unmarked) [Compound 57] came in with a melting point of 186 to 188 °C. Also, the CC50 in data set [1] was over 91 µM.

As for `CCOc1cc(C2C(C(=O)c3cc4ccccc4o3)=C(O)C(=O)N2c2nnc(SCc3ccccc3F)s2)ccc1O` (centres unmarked) [Compound 3], the CC50 in data set [1] is over 83 µM.

Regarding `CCOC(=O)c1sc(N2C(=O)C(O)=C(C(=O)c3ccc(C)cc3)C2c2cccs2)nc1C` (centres unmarked) [Compound 28], the CC50 in data set [1] came out at 89.1 µM.

For `CCOc1cc(C2C(C(=O)c3cc4ccccc4o3)=C(O)C(=O)N2c2nnc(SCc3cccc4ccccc34)s2)ccc1O` (centres unmarked) [Compound 2], the CC50 in data set [1] was over 79 µM.

The compound `CC(=O)c1sc(N2C(=O)C(O)=C(C(=O)c3cc4ccccc4o3)C2c2ccc(-c3ccccc3)cc2)nc1C` (centres unmarked) [Compound 55] came in with a melting point of 226 to 228 °C. In addition, the half-maximal cytotoxic concentration (CC50) in data set [1] was 42.9 µM.

As for `Cc1nc(C)c(C(=O)C2=C(O)C(=O)N(c3nc4ccc(Cl)cc4s3)C2c2cccs2)s1` (centres unmarked) [Compound 49], the cytotoxic concentration (CC50) in data set [1] was over 111 µM.

For the compound `Cc1coc(N2C(=O)C(O)=C(C(=O)c3cc4ccccc4o3)C2c2ccc(OCc3ccccc3)cc2)n1` (centres unmarked) [Compound 58], the melting point fell in the range of 169 to 171 °C. Moreover, the CC50 in data set [1] is over 94 µM.

As for `CCOc1cc(C2C(C(=O)c3cc4ccccc4o3)=C(O)C(=O)N2c2nc(C)c(C(C)=O)s2)ccc1O` (centres unmarked) [Compound 13], the half-maximal cytotoxic concentration (CC50) in data set [1] was 59.8 µM.

As to `CCc1ccc2nc(N3C(=O)C(O)=C(C(=O)c4ccccc4)C3c3cccs3)sc2c1` (centres unmarked) [Compound 118], the CC50 in data set [1] is 10.8 µM.

In the case of `O=C(C1=C(O)C(=O)N(c2nnc(SCc3ccc(F)cc3)s2)C1c1cccc(O)c1)c1cc2ccccc2o1` (centres unmarked) [Compound 15], the CC50 in data set [1] was over 89 µM.

Regarding `CCOC(=O)c1sc(N2C(=O)C(O)=C(C(=O)c3ccc(F)cc3)C2c2cccs2)nc1C` (centres unmarked) [Compound 40], the cytotoxic concentration (CC50) in data set [1] was determined as 62.9 µM.

In turn, `O=C(C1=C(O)C(=O)N(c2nc3ccccc3s2)C1c1ccc(OCc2ccccc2)cc1)c1cc2ccccc2o1` (centres unmarked) [Compound 51] had a melting point of 213 to 214 °C. In data set [1], the half-maximal cytotoxic concentration (CC50) worked out at 82.3 µM.

For `COc1cc(C2C(C(=O)c3cc4ccccc4o3)=C(O)C(=O)N2c2nnc(C)s2)ccc1OCc1ccccc1` (centres unmarked) [Compound 9], the CC50 in data set [1] is over 90 µM.

With `O=C(C1=C(O)C(=O)N(c2nncs2)C1c1ccc(OCc2ccccc2)cc1)c1cc2ccccc2o1` (centres unmarked) [Compound 52], the melting point lay in the range of 150 to 154 °C. For the same compound, in data set [1], the CC50 is over 90 µM.

For the compound `Cc1cnc(N2C(=O)C(O)=C(C(=O)c3cc4ccccc4o3)C2c2ccc(OCc3ccccc3)cc2)s1` (centres unmarked) [Compound 50], the melting point is 241 to 243 °C. In addition, the 50% cytotoxic concentration (CC50) in data set [1] stood at 82 µM.

As to `COC(=O)c1sc(N2C(=O)C(O)=C(C(=O)c3ccc(F)cc3)C2c2ccc(F)cc2)nc1C` (centres unmarked) [Compound 31], the CC50 in data set [1] came to 46.5 µM.

Consider `CCOC(=O)c1sc(N2C(=O)C(O)=C(C(=O)c3ccco3)C2c2ccco2)nc1C` (centres unmarked) [Compound 45], for which the CC50 in data set [1] was determined as 96.2 µM.

`CCCCCOc1ccc(C2C(C(=O)c3cc4ccccc4o3)=C(O)C(=O)N2c2nc(C)c(C(C)=O)s2)cc1OC` (centres unmarked) [Compound 14]: the CC50 in data set [1] came to 74.2 µM.

For `Cc1ccc2nc(N3C(=O)C(O)=C(C(=O)c4cc5ccccc5o4)C3c3cccc(O)c3)sc2c1` (centres unmarked) [Compound 8], the cytotoxic concentration (CC50) in data set [1] came out at 80.1 µM.

On to `O=C(C1=C(O)C(=O)N(c2nnc(SCc3ccc(Cl)cc3)s2)C1c1cccc(O)c1)c1cc2ccccc2o1` (centres unmarked) [Compound 12], for which, in data set [1], the half-maximal cytotoxic concentration (CC50) is over 87 µM.

In the case of `CCc1ccc2nc(N3C(=O)C(O)=C(C(=O)c4ccco4)C3c3cccs3)sc2c1` (centres unmarked) [Compound 122], the CC50 in data set [1] is 58.2 µM.

As for `CCOc1cc(C2C(C(=O)c3cc4ccccc4o3)=C(O)C(=O)N2c2nnc(SCc3ccccc3)s2)ccc1O` (centres unmarked) [Compound 7], the CC50 in data set [1] is over 85 µM.

`CC(=O)c1sc(N2C(=O)C(O)=C(C(=O)c3cc4ccccc4o3)C2c2ccc(OCc3ccccc3)cc2)nc1C` (centres unmarked) [Compound 10] showed a melting point of 195 to 197 °C. Besides, the CC50 in data set [1] was over 89 µM.

In the case of `CC(=O)C1=C(O)C(=O)N(c2nccs2)C1c1ccccc1` (centres unmarked) [Compound 22], in data set [1], the half-maximal cytotoxic concentration (CC50) came out at 29.7 µM.

Take `O=C(C1=C(O)C(=O)N(c2nccs2)C1c1ccc(OCc2ccccc2)cc1)c1cc2ccccc2o1` (centres unmarked) [Compound 53]: the melting point fell in the range of 193 to 195 °C. Further, the CC50 in data set [1] was over 98 µM.

As to `Cc1cc(C)c2nc(N3C(=O)C(O)=C(C(=O)c4ccc5c(c4)OCCO5)C3c3cccnc3)sc2c1` (centres unmarked) [Compound 126], the CC50 in data set [1] is 27.4 µM.
